Measured values reported in US20240018125A1, “CYCLIC ISOTHIOUREA DERIVATIVES AS CXCR4 MODULATORS” (ERMIUM THERAPEUTICS, priority 2020, published 2024).
Counter-ions that a name gives are not always drawn.

The compounds below were run on peripheral blood mononuclear cells (PBMCs) from healthy donors (assay: IFN production by R848-activated PBMCs, quantified with twINNE luciferase reporter cell line). Conditions: Homo sapiens, PBMC; read-out: IC50 of anti-inflammatory activity (IFN production by activated PBMCs).
Format: cell-based, human
Method: The blood from healthy donors was obtained from “Etablissement Français du Sang” (convention #19/EFS/029), Paris, France.
In vitro experiments were performed using human peripheral blood mononuclear cells (PBMCs) isolated by density centrifugation from peripheral blood leukocyte separation medium, lymphoprep (Stemcell Technologies).
PBMCs were cultured in RPMI 1640 (Sigma-Aldrich, MO, USA) containing 10% heat-inactivated fetal bovine serum (Sigma-Aldrich, MO, USA) at 37° C./5% CO2.
The PBMCs used herein were prepared as described in part A “immune cells preparation”, above. PBMCs were seeded at 4.10^6/mL. Cells were pre-treated with different concentration of examples according to the invention. Cells were then stimulated with the TLR7/8 agonist resiquimod—R848 (Sigma-Aldrich, MO, USA) at 5 μg/mL.
To quantify the secretion of functional IFN, a biological assay based on a stable cell line where luciferase reporter gene is controlled by five Interferon-Stimulated Response Elements (twINNE cell line) was used. First, supernatants of R848-stimulated PBMCs (see part B above) were harvested after 24 h of stimulation and frozen at −20° C. for storage. Then, supernatants were dispensed in culture wells of a 96-well plate containing 35.103 twINNE cells per well in Dulbecco's Modified Eagle's Medium supplemented with 10% Foetal Bovine Serum, 100 U/mL Penicillin and 100 μg/mL Streptomycin (1% Pen-Strep) and 1 mM glutamine (Sigma-Aldrich, MO, USA) at 37° C./5% CO2. After 24 h of culture, luciferase activity was determined by adding 60 μL of Bright-Glo reagents (Promega, Wisconsin, USA) to culture wells and measuring bioluminescence with EnSpire Multimode Plate Reader (PerkinElmer, Massachusetts, USA). When stated, for IC50 calculation, dose-response curves fitted using the nonlin fit (variable slope) analysis in GraphPad Prism software (GraphPad Software, Califronia, USA).
IFN production was quantified (as specified in Materials and Methods, part C “quantification of interferon secretion”) using twINNE reporter cell line.
In the case of COc1ccc(C[C@@H]2CN3C(CSC4=NCc5ccccc5N4)=CSC3=N2)cc1 [Example 124, (R)-3-(((1,4-dihydroquinazolin-2-yl)thio)methyl)-6-(4-methoxybenzyl)-5,6-dihydroimidazo[2,1-b]thiazole dihydrochloride], the IC50 is reported as ≤ 10 µM.
For Cl.c1ccc2c(c1)CN=C(SCc1csc3nc4ccccc4n13)N2 [Example 96, 3-(((3,4-dihydroquinazolin-2-ylthio)methyl)benzo[4,5]imidazo[2,1-b]thiazole hydrochloride], the IC50 was > 32 µM.
In the case of Cc1cccc(CC2CN3C(CSC4=NCc5ccccc5N4)=CSC3=N2)c1 (stereo not drawn) [Example 112, 3-(((1,4-dihydroquinazolin-2-yl)thio)methyl)-6-(3-methylbenzyl)-5,6-dihydroimidazo[2,1-b]thiazole dihydrochloride], the IC50 is reported as ≤ 10 µM.
FC1(F)CCN(CCSC2=NCc3ccccc3N2)C1 [Example 125, 2-((2-(3,3-difluoropyrrolidin-1-yl)ethyl)thio)-1,4-dihydroquinazoline dihydrochloride] showed an IC50 of 10 to 32 µM.
For CC1(C)N=C(SCC2=CSC3=Nc4ccc(Cl)cc4CN23)Nc2ccccc21 [Example 75, 7-chloro-3-(((4,4-dimethyl-1,4-dihydroquinazolin-2-yl)thio)methyl)-5H-thiazolo[2,3-b]quinazoline dihydrochloride], the IC50 was > 32 µM.
Compound CC1(C)CN=C(SCC2=CSC3=Nc4ccc(Cl)cc4CN23)N1 [Example 2, 7-chloro-3-(((5,5-dimethyl-4,5-dihydro-1H-imidazol-2-yl)thio)methyl)-5H-thiazolo[2,3-b]quinazoline dihydrochloride] has an IC50 of 10 to 32 µM.
For COC1CCN(CCSC2=NCc3ccccc3N2)C1 (stereo not drawn) [Example 127, 2-((2-(3-methoxypyrrolidin-1-yl)ethyl)thio)-1,4-dihydroquinazoline dihydrochloride], the IC50 was ≤ 10 µM.
C1=C(CSC2=NCc3ccccc3N2)N2CCc3ccccc3N=C2S1 [Example 35, 3-(((3,4-dihydroquinazolin-2-yl)thio)methyl)-5,6-dihydrobenzo[d]thiazolo[3,2-a][1,3]diazepine dihydrochloride] was tested, and the IC50 was ≤ 10 µM.
Compound c1ccc2c(c1)CN=C(SCCCCN1CCCC1)N2 [Example 137, 2-((4-(pyrrolidin-1-yl)butyl)thio)-1,4-dihydroquinazoline dihydrochloride] has an IC50 of 10 to 32 µM.
With F[C@@H]1CCN(CCSC2=NCc3ccccc3N2)C1 [Example 157, (R)-2-((2-(3-fluoropyrrolidin-1-yl)ethyl)thio)-1,4-dihydroquinazoline dihydrochloride] the IC50 was 10 to 32 µM.
FC1(F)CC12CCN(CCSC1=NCc3ccccc3N1)C2 (stereo not drawn) [Example 132, 2-((2-(1,1-difluoro-5-azaspiro[2.4]heptan-5-yl)ethyl)thio)-3,4-dihydroquinazoline] showed an IC50 of 10 to 32 µM.
With CC1(C)CN=C(SCC2=CSC3=Nc4cc(Cl)ccc4CN23)N1 [Example 9, 8-chloro-3-(((5,5-dimethyl-4,5-dihydro-1H-imidazol-2-yl)thio)methyl)-5H-thiazolo[2,3-b]quinazoline dihydrochloride] the IC50 was 10 to 32 µM.
Cc1ccc(CC2CN3C(CSC4=NCc5ccccc5N4)=CSC3=N2)cc1 (stereo not drawn) [Example 122, 3-(((1,4-dihydroquinazolin-2-yl)thio)methyl)-6-(4-methylbenzyl)-5,6-dihydroimidazo[2,1-b]thiazole dihydrochloride] was tested, and the IC50 was ≤ 10 µM.
c1ccc2c(c1)CN=C(SCCCN1CCCC1)NC2 [Example 194, 3-((3-(pyrrolidin-1-yl)propyl)thio)-2,5-dihydro-1H-benzo[e][1,3]diazepine dihydrochloride] was tested, and the IC50 was > 32 µM.
Compound c1ccc2c(c1)CCN=C(SCCCN1CCCC1)N2 [Example 190, 2-((3-(pyrrolidin-1-yl)propyl)thio)-4,5-dihydro-3H-benzo[d][1,3]diazepine dihydrochloride] has an IC50 of 10 to 32 µM.
In the case of c1ccc(COC2CCN(CCSC3=NCc4ccccc4N3)C2)cc1 (stereo not drawn) [Example 143, 2-((2-(3-(benzyloxy)pyrrolidin-1-yl)ethyl)thio)-1,4-dihydroquinazoline dihydrochloride], the IC50 is reported as ≤ 10 µM.
Compound CC1(C)CN=C(SCC2=CSC3=Nc4ccccc4CN23)N1 [Example 5, 3-(((5,5-dimethyl-4,5-dihydro-1H-imidazol-2-yl)thio)methyl)-5H-thiazolo[2,3-b]quinazoline dihydrochloride] has an IC50 of 10 to 32 µM.
Clc1ccc2c(c1)CN=C(SCCCCn1ccnc1)N2 [Example 176, 2-((4-(1H-imidazol-1-yl)butyl)thio)-6-chloro-1,4-dihydroquinazoline dihydrochloride] gave an IC50 of 10 to 32 µM.
C1=C(CSC2=N[C@@H]3CCCC[C@H]3N2)N2Cc3ccccc3N=C2S1 [Example 32, 3-((((3aR,7aR)-3a,4,5,6,7,7a-hexahydro-1H-benzo[d]imidazol-2-yl)thio)methyl)-5H-thiazolo[2,3-b]quinazoline dihydrochloride] was tested, and the IC50 was ≤ 10 µM.
For C1CN=C(SCCCCN2CCCC2)NC1 [Example 173, 2-((4-(pyrrolidin-1-yl)butyl)thio)-1,4,5,6-tetrahydropyrimidine dihydrochloride], the IC50 was > 32 µM.
For IC1=C(CSC2=NCc3ccccc3N2)N2CC(Cc3ccccc3)N=C2S1 (stereo not drawn) [Example 110, 6-benzyl-3-(((1,4-dihydroquinazolin-2-yl)thio)methyl)-2-iodo-5,6-dihydroimidazo[2,1-b]thiazole dihydrochloride], the IC50 was ≤ 10 µM.
c1ccc2c(c1)CN=C(SCCN1CCC3(CCCC3)C1)N2 [Example 142, 2-((2-(2-azaspiro[4.4]nonan-2-yl)ethyl)thio)-1,4-dihydroquinazoline dihydrochloride] was tested, and the IC50 was ≤ 10 µM.
Clc1ccc2c(c1)CN1C(CSC3=NCC4(CC4)N3)=CSC1=N2 [Example 68, 3-(((4,6-diazaspiro[2.4]hept-5-en-5-yl)thio)methyl)-7-chloro-5H-thiazolo[2,3-b]quinazoline dihydrochloride] was tested, and the IC50 was ≤ 10 µM.
For COc1ccc(CC2(C)CN=C(SCC3=CSC4=NCc5ccccc5CN34)N2)cc1 (stereo not drawn) [Example 34, 3-(((5-(4-methoxybenzyl)-5-methyl-4,5-dihydro-1H-imidazol-2-yl)thio)methyl)-5,10-dihydrobenzo[e]thiazolo[3,2-a][1,3]diazepine dihydrochloride], the IC50 was ≤ 10 µM.
CN1CCN=C1SCC1=CSC2=Nc3ccccc3CN12 [Example 36, 3-(((1-methyl-4,5-dihydro-1H-imidazol-2-yl)thio)methyl)-5H-thiazolo[2,3-b]quinazoline dihydrochloride] was tested, and the IC50 was ≤ 10 µM.
With C1=C(CSC2=NCc3ccccc3N2)N2C(=N[C@H]3CCCC[C@@H]32)S1 (relative stereo) [Example 13, trans-3-(((3,4-dihydroquinazolin-2-yl)thio)methyl)-4a,5,6,7,8,8a-hexahydrobenzo[4,5]imidazo[2,1-b]thiazole dihydrochloride] the IC50 was ≤ 10 µM.
For C1=C(CSC2=NCc3ccccc3N2)N2Cc3ccccc3CN=C2S1 [Example 11, 3-(((3,4-dihydroquinazolin-2-yl)thio)methyl)-5,10-dihydrobenzo[e]thiazolo[3,2-a][1,3]diazepine dihydrochloride], the IC50 was ≤ 10 µM.
Clc1ccc2c(c1)CN1C(=N2)SC(Br)=C1CSC1=NCc2ccccc2N1 [Example 79, 2-bromo-7-chloro-3-(((1,4-dihydroquinazolin-2-yl)thio)methyl)-5H-thiazolo[2,3-b]quinazoline dihydrochloride] was tested, and the IC50 was ≤ 10 µM.
In the case of COc1ccc(CC2(C)CN3C(CSC4=NCc5ccccc5N4)=CSC3=N2)cc1 (stereo not drawn) [Example 46, 3-(((3,4-dihydroquinazolin-2-yl)thio)methyl)-6-(4-methoxybenzyl)-6-methyl-5,6-dihydroimidazo[2,1-b]thiazole dihydrochloride], the IC50 is reported as ≤ 10 µM.
With Clc1ccc2c(c1)CN1C(CSC3=NCc4ccc(Br)cc4N3)=CSC1=N2 [Example 66, 3-(((7-bromo-1,4-dihydroquinazolin-2-yl)thio)methyl)-7-chloro-5H-thiazolo[2,3-b]quinazoline dihydrochloride] the IC50 was ≤ 10 µM.
C1=C(CSC2=NCC(Cc3ccccc3)N2)N2Cc3ccccc3N=C2S1 (stereo not drawn) [Example 33, 3-(((5-benzyl-4,5-dihydro-1H-imidazol-2-yl)thio)methyl)-5H-thiazolo[2,3-b]quinazoline dihydrochloride] was tested, and the IC50 was ≤ 10 µM.
C1=C(CSC2=NCc3ccccc3N2)N2C(=N[C@H](c3ccccc3)[C@H]2c2ccccc2)S1 (relative stereo) [Example 16, trans-3-(((3,4-dihydroquinazolin-2-yl)thio)methyl)-5,6-diphenyl-5,6-dihydroimidazo[2,1-b]thiazole dihydrochloride] was tested, and the IC50 was ≤ 10 µM.
c1ccc2c(c1)CN=C(SCCN1CCCCCC1)N2 [Example 90, 2-((2-(azepan-1-yl)ethyl)thio)-1,4-dihydroquinazoline dihydrochloride] was tested, and the IC50 was ≤ 10 µM.
